These results are taken from ChEMBL document CHEMBL5325463, “Novel spiroindoline quinazolinedione derivatives as anticancer agents and potential FLT3 kinase inhibitors” (Bioorg Med Chem, 2023).

Molecules are shown by their SMILES.

For one assay, the system named is EBC-1. Kind of assay: cells. To be noted: Homo sapiens, EBC-1, 72 h.
In the next assay the test system is A549. Kind of assay: cells. To be noted: Homo sapiens, A549, 72 h.
A further assay deals with HT-29. Kind of assay: cells. Particulars: Homo sapiens, HT-29, 72 h.
Assay [1] relates to K562. Kind of assay: cells. Particulars: Homo sapiens, K562, 72 h.
Description: Antiproliferative activity against human K562 cells incubated for 3 days by MTT assay
Assay [2] has as its system K562. The assay can be described thus: Induction of cell cycle arrest in human K562 cells assessed as accumulation at sub G1 phase at 10 uM incubated for 48 hrs by Rnase/PI staining based flow cytometry (reference value: 0.92 +/- 0.12). Format: functional.
Assay [3] concerns K562. The assay can be described thus: Induction of cell cycle arrest in human K562 cells assessed as accumulation at G0/G1 phase at 10 uM incubated for 48 hrs by Rnase/PI staining based flow cytometry (reference value: 57.34 +/- 3.14). Format: functional. For orientation: A flow cytometer gives signals particle by particle.
Assay [4] has as its system K562. The assay can be described thus: Induction of cell cycle arrest in human K562 cells assessed as accumulation at S phase at 10 uM incubated for 48 hrs by Rnase/PI staining based flow cytometry (reference value: 17.95 +/- 3.42). Format: functional.
For assay [5], the system named is K562. Kind of assay: Induction of cell cycle arrest in human K562 cells assessed as accumulation at G2/M phase at 10 uM incubated for 48 hrs by Rnase/PI staining based flow cytometry (reference value: 23.78 +/- 6.09). Format: functional.
For assay [6], the system named is K562. The assay can be described thus: Induction of cell cycle arrest in human K562 cells assessed as accumulation at sub G1 phase at 50 uM incubated for 48 hrs by Rnase/PI staining based flow cytometry (reference value: 0.92 +/- 0.12). Format: functional.
Assay [7] relates to K562. Kind of assay: Induction of cell cycle arrest in human K562 cells assessed as accumulation at G0/G1 phase at 50 uM incubated for 48 hrs by Rnase/PI staining based flow cytometry (reference value: 57.34 +/- 3.14). Format: functional.
In assay [8] the test system is K562. Kind of assay: Induction of cell cycle arrest in human K562 cells assessed as accumulation at S phase at 50 uM incubated for 48 hrs by Rnase/PI staining based flow cytometry (reference value: 17.95 +/- 3.42). Format: functional.
Assay [9] has as its system K562. The assay can be described thus: Induction of cell cycle arrest in human K562 cells assessed as accumulation at G2/M phase at 50 uM incubated for 48 hrs by Rnase/PI staining based flow cytometry (reference value: 23.78 +/- 6.09). Format: functional.
Assay [10] addresses Mast/stem cell growth factor receptor Kit (Homo sapiens) (UniProt P10721). Kind of assay: Inhibition of KIT (unknown origin) at 10 uM by radiometric assay relative to control.
In assay [11] the target is Vascular endothelial growth factor receptor 2 (Homo sapiens) (UniProt P35968). The assay can be described thus: Inhibition of KDR (unknown origin) at 10 uM by radiometric assay relative to control.
In assay [12] the target is Mitogen-activated protein kinase 3 (Homo sapiens) (UniProt P27361). The assay can be described thus: Inhibition of MAPK3 (unknown origin) at 10 uM by radiometric assay relative to control.
Assay [13] addresses Dual specificity mitogen-activated protein kinase kinase 1 (Homo sapiens) (UniProt Q02750). Kind of assay: Inhibition of MAP2K1 (unknown origin) at 10 uM by radiometric assay relative to control.
For assay [14], the target named is Hepatocyte growth factor receptor (Homo sapiens) (UniProt P08581). Kind of assay: Inhibition of MET (unknown origin) at 10 uM by radiometric assay relative to control.
The target in assay [15] is Macrophage-stimulating protein receptor (Homo sapiens) (UniProt Q04912). The assay can be described thus: Inhibition of MST1R (unknown origin) at 10 uM by radiometric assay relative to control.
Assay [16] addresses Platelet-derived growth factor receptor alpha (Homo sapiens) (UniProt P16234). The assay can be described thus: Inhibition of PDGFRA (unknown origin) at 10 uM by radiometric assay relative to control.
Assay [17] deals with Platelet-derived growth factor receptor beta (Homo sapiens) (UniProt P09619). The assay can be described thus: Inhibition of PDGFRB (unknown origin) at 10 uM by radiometric assay relative to control.
Assay [18] deals with Receptor-type tyrosine-protein kinase FLT3 (Homo sapiens) (UniProt P36888). The assay can be described thus: Inhibition of human FLT3 at 10 uM by radiometric assay relative to control.
Assay [19] has as its system T1, Receptor-type tyrosine-protein kinase FLT3 (Homo sapiens), P36888 [D835Y].
T1 sequence (whole entry): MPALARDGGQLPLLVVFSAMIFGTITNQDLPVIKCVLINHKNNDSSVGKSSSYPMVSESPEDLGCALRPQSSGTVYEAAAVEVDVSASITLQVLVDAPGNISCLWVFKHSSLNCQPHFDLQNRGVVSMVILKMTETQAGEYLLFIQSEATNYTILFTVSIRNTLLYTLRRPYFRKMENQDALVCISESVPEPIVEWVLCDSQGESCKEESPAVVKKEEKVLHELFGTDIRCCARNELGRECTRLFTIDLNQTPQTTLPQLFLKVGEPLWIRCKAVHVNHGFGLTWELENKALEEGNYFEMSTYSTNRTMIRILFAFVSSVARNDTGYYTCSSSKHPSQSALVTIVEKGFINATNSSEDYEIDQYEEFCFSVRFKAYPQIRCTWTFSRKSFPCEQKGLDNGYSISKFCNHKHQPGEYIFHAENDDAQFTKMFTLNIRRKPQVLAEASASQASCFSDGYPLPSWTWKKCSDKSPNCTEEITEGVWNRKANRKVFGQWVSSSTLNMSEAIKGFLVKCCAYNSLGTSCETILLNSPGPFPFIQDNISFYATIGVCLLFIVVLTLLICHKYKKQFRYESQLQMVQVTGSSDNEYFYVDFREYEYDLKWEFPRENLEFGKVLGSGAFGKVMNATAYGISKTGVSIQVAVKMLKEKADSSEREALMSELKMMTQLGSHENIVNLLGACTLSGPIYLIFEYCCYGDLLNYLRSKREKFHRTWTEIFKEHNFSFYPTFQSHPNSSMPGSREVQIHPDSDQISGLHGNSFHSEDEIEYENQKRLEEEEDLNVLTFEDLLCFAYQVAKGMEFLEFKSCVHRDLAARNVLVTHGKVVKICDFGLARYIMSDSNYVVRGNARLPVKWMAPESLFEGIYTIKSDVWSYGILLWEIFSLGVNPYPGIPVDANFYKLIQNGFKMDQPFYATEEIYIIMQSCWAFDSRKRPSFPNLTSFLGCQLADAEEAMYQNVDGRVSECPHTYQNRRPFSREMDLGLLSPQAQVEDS
The assay can be described thus: Inhibition of human FLT3 D835Y mutant at 10 uM by radiometric assay relative to control.

Assay [20] deals with Receptor-type tyrosine-protein kinase FLT3 (Homo sapiens) (UniProt P36888). Kind of assay: Inhibition of human FLT3 at 25 uM by radiometric assay relative to control.
The test system of assay [21] is T1, Receptor-type tyrosine-protein kinase FLT3 (Homo sapiens), P36888 [D835Y]. Kind of assay: Inhibition of human FLT3 D835Y mutant at 25 uM by radiometric assay relative to control.

Sequence of Platelet-derived growth factor receptor beta (Homo sapiens) (P09619 whole entry): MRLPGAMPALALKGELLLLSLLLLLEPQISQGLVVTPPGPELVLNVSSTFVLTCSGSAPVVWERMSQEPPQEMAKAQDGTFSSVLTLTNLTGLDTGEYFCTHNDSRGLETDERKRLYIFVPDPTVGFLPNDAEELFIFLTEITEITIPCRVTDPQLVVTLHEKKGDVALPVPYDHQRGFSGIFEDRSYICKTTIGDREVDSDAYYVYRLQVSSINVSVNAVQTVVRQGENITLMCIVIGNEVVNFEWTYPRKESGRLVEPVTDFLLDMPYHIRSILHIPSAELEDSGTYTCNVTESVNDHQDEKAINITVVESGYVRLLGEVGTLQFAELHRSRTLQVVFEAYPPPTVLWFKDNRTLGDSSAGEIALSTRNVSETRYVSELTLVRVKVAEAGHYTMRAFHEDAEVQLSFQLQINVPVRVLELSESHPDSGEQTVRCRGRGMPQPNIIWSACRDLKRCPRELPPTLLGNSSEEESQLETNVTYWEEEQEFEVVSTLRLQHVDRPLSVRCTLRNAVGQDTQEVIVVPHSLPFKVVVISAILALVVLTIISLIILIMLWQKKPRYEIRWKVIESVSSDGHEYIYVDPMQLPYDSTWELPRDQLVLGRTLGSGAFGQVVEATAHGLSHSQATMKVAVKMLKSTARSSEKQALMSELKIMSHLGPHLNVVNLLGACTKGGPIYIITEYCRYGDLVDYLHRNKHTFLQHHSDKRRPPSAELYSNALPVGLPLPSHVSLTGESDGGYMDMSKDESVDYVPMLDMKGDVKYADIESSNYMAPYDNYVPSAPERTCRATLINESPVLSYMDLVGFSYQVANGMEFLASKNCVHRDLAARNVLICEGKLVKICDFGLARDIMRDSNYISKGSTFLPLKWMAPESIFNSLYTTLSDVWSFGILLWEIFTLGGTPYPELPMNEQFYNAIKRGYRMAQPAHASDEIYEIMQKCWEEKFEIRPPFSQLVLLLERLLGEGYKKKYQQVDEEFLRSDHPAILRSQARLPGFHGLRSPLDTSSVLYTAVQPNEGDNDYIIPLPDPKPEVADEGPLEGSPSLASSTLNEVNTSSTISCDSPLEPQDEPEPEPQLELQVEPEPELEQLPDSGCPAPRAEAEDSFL
Sequence of Hepatocyte growth factor receptor (Homo sapiens) (P08581 whole entry): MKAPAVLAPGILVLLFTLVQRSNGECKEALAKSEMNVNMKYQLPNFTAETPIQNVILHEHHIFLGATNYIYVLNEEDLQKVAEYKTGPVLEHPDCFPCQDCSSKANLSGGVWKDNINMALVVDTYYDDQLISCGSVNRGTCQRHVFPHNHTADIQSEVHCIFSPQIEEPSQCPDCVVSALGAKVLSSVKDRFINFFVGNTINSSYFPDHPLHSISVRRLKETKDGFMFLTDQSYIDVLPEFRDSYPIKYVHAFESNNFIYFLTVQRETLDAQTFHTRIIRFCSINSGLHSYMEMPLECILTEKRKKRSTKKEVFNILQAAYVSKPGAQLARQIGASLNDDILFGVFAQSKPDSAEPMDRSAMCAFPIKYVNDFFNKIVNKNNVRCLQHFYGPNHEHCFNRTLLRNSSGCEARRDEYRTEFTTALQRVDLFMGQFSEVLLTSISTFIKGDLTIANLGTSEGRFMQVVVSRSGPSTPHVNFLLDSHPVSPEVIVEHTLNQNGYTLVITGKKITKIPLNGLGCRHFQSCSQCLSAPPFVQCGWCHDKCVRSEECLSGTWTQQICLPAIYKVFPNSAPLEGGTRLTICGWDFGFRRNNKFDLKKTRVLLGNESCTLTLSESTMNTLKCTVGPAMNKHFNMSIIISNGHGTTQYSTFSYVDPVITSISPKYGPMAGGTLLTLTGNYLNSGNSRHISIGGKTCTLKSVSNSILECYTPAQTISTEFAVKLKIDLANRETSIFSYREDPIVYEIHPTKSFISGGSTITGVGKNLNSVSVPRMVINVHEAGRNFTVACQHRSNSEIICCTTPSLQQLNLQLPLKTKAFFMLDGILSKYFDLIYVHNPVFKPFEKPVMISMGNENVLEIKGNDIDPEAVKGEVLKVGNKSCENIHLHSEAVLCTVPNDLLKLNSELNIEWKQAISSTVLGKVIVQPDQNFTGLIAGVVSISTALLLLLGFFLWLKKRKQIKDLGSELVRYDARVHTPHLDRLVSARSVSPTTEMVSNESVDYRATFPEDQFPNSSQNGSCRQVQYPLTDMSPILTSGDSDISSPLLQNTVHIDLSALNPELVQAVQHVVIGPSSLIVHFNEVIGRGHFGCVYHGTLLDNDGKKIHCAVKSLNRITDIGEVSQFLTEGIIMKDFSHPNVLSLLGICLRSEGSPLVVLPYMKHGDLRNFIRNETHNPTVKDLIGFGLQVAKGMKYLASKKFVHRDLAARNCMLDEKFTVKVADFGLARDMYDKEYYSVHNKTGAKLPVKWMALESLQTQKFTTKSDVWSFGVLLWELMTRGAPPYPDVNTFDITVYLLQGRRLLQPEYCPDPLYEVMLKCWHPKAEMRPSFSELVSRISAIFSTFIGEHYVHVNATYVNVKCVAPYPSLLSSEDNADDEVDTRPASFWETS
Sequence of Platelet-derived growth factor receptor alpha (Homo sapiens) (P16234 whole entry): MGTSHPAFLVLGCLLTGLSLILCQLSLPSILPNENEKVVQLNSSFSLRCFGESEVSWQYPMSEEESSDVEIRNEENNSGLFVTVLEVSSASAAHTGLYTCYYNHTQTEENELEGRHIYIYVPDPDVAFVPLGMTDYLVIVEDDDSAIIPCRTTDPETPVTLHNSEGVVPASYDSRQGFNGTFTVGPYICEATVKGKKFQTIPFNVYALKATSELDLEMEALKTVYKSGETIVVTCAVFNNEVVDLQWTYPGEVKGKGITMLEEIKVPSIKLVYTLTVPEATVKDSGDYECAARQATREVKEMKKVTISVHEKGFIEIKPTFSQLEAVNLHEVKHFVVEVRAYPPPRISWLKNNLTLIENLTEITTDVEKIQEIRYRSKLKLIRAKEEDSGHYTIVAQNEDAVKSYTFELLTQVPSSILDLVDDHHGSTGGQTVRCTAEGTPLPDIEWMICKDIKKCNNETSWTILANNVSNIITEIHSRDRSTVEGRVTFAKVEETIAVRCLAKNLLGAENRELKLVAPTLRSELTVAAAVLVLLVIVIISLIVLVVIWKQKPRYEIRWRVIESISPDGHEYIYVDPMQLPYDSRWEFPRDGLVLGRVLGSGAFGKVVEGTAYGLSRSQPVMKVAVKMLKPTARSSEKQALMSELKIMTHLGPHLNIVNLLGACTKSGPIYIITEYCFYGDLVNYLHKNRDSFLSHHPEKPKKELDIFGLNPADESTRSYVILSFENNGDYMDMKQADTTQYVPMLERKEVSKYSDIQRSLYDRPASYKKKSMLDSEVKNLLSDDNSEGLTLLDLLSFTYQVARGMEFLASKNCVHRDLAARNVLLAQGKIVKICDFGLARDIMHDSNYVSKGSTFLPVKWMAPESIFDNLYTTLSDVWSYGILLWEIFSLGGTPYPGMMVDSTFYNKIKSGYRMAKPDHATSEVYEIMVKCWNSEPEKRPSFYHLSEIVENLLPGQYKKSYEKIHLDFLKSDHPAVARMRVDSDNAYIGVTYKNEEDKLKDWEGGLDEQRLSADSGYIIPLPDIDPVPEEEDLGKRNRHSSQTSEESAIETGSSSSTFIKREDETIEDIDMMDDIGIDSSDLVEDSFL
Sequence of Mitogen-activated protein kinase 3 (Homo sapiens) (P27361 whole entry): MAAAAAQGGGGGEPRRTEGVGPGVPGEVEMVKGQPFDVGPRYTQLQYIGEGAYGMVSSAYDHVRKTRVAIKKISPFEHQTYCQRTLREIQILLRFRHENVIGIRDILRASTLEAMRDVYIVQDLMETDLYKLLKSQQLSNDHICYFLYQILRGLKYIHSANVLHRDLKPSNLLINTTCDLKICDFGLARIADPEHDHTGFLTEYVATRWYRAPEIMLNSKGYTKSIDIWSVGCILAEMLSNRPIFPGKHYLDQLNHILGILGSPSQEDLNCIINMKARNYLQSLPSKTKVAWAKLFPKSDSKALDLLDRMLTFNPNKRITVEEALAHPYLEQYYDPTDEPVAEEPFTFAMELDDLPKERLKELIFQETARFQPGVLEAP
Sequence of Mast/stem cell growth factor receptor Kit (Homo sapiens) (P10721 whole entry): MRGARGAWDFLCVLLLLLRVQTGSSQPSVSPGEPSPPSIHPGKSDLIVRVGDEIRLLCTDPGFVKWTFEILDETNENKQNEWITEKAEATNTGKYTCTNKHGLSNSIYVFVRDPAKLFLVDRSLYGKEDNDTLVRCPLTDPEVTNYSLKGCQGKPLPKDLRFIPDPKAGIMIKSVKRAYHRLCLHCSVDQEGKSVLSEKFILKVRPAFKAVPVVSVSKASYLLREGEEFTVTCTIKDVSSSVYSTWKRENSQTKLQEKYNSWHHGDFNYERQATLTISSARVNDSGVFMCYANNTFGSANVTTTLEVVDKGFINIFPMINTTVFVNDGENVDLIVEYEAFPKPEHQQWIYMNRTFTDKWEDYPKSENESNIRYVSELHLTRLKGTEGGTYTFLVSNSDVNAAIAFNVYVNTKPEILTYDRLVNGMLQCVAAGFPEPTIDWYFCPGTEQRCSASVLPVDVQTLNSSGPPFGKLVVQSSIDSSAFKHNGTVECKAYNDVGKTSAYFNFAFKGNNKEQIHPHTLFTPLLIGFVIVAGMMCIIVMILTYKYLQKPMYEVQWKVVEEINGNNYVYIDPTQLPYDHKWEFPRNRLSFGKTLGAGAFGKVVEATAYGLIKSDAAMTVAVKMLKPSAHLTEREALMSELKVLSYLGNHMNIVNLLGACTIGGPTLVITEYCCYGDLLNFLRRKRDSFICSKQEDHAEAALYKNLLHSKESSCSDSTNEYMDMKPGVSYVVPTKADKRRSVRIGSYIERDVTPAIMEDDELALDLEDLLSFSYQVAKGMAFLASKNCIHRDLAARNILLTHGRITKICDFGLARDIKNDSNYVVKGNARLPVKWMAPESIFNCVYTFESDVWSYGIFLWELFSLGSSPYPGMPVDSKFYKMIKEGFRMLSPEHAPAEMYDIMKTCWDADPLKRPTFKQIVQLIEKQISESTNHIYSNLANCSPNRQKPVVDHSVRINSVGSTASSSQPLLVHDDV
Description for A549: Antiproliferative activity against human A549 cells incubated for 3 days by MTT assay
Description for EBC-1: Antiproliferative activity against human EBC-1 cells incubated for 3 days by MTT assay
Description for HT-29: Antiproliferative activity against human HT-29 cells incubated for 3 days by MTT assay

By IC50 is commonly meant the concentration needed to halve the response being measured. Low readings indicate inhibition by little substance, high ones a need for much substance. On to `O=C1NC2(Nc3c(Br)cc(Br)cc31)C(=O)N(Cc1ccc(Cl)c(Cl)c1)c1ccccc12` (centres undefined), for which the concentration for half-maximal inhibition (IC50) with EBC-1 was 19.8 µM; in the assay on A549, greater than 100 µM; in the assay with HT-29, 24.3 µM; with K562 [1], greater than 100 µM.

For the compound `O=C1NC2(Nc3c(Br)cc(Br)cc31)C(=O)N(Cc1ccc(F)cc1)c1ccccc12` (centres undefined), the IC50 in the assay with EBC-1 is 34.6 µM; in the assay with A549, 45.4 µM; in the assay with HT-29, greater than 100 µM; with K562 [1], greater than 100 µM.

On to `CCCCCN1C(=O)C2(NC(=O)c3ccccc3N2)c2ccccc21` (centres undefined), for which the concentration for half-maximal inhibition (IC50) in the assay with EBC-1, in the assay on A549, in the assay with HT-29 and in the assay on K562 [1] was greater than 100 µM each time.

As for `CCN1C(=O)C2(NC(=O)c3ccccc3N2)c2ccccc21` (centres undefined), the half-inhibitory concentration (IC50) in the assay with EBC-1 was greater than 100 µM; with A549 it was greater than 100 µM; with HT-29, 28.5 µM; with K562 [1] it was 50.4 µM.

Broadly, the inhibition is the change of the read-out against control, counted positive when it falls. `O=C1NC2(Nc3c(Br)cc(Br)cc31)C(=O)N(Cc1ccc(Cl)cc1)c1ccccc12` (centres undefined): the Activity with K562 [2] was determined as 1.04%; in the assay on K562 [3] it was 57.29%; in the assay on K562 [4], 17.89%; in the assay with K562 [5] it was 23.78%; in the assay with K562 [6] it was 1.41%; in the assay with K562 [7], 50.3%. The Activity worked out at 21.06% with K562 [8] and 27.23% in the assay on K562 [9]. In addition, the inhibition in [10] was 1%; in [11], 12%; in assay [12], -4%; in [13] it was -6%; in assay [14], 12%; in assay [15] it was 2%. For the same compound, the inhibition is 5% in [16]; -1% in [17]; 18% in assay [18]; 5% in [19]; 19% in [20]; -6% in assay [21]. Moreover, the half-inhibitory concentration (IC50) worked out at 10.4 µM with EBC-1, 26.9 µM in the assay on A549, 12.5 µM in the assay with HT-29 and 13.8 µM in the assay with K562 [1].

As for `CC(C)(C)c1ccc(CN2C(=O)C3(NC(=O)c4cc(Br)cc(Br)c4N3)c3ccccc32)cc1` (centres undefined), the half-inhibitory concentration (IC50) is 19.6 µM with EBC-1, 45.5 µM with A549, greater than 100 µM in the assay with HT-29 and greater than 100 µM with K562 [1].

As for `Cc1ccc(CN2C(=O)C3(NC(=O)c4ccccc4N3)c3ccccc32)cc1` (centres undefined), the IC50 is 20.3 µM in the assay with EBC-1, 26.2 µM in the assay with A549 and 29.2 µM in the assay with HT-29.

`CCCCCN1C(=O)C2(NC(=O)c3cc(Br)cc(Br)c3N2)c2ccccc21` (centres undefined): the IC50 in the assay with EBC-1 was 24.7 µM; in the assay with A549 it was 47.1 µM; in the assay on HT-29 it was 51.9 µM; in the assay with K562 [1], greater than 100 µM.

Regarding `O=C1NC2(Nc3ccccc31)C(=O)N(Cc1ccc(Br)cc1)c1ccccc12` (centres undefined), the IC50 was 38.7 µM in the assay on EBC-1, 39.7 µM in the assay on A549, 71.9 µM in the assay on HT-29 and 19.9 µM in the assay with K562 [1].

Turning to `COc1cc2nccc(Oc3ccc(NC(=O)C4(C(=O)Nc5ccc(F)cc5)CC4)cc3)c2cc1OC` [CABOZANTINIB], the IC50 with EBC-1 was 0.0592 µM; in the assay on A549 it was 16.2 µM; in the assay with HT-29, 3.7 µM; in the assay on K562 [1], 1.9 µM.
